# Laboratory results as given in article PMC3278557 (Pharmacological Research, 2011).
# System: cultured neonatal rat cardiomyocytes
# Assay: Effects on hypoxic cardiomyocytes
# Format: cell-based
Compound,anti-hypoxic protective potency (concentration range),cardioprotection of hypoxic cardiomyocytes (100 nM),"antagonism of the protective effect of 6 (1 nM) (antagonist at 1 μM, LDH release or PI staining)"
"CNC(=O)[C@H]1O[C@@H](n2cnc3c(NCc4cccc(I)c4)nc(Cl)nc32)[C@H](O)[C@@H]1O [Cl-IB-MECA, 2-chloro-N^6-(3-iodobenzyl)-5′-N-methylcarboxamidoadenosine]",~100 nM,provided cardioprotection,
"CCCOC(=O)c1c(-c2ccccc2)nc(CC)c(C(=O)SCC)c1CCC [MRS1523, 5-propyl-2-ethyl-4-propyl-3-(ethylsulfanylcarbonyl)-6-phenylpyridine-5-carboxylate]",,,completely reversed
